Values joined by “and” are separate entries in the source; they are usually repeats but may differ in a detail not shown here. Equal entries are not always repeated. Where two headings read alike, the source gives them in different places.
Experiments:
MDCK cells = test: cells; assay type: cell-based; conditions: Canis lupus familiaris, 48 h, read-out: IC50 Value Tox (beside Flu A/NWS)
[1] = test system: influenza virus (strain A/NWS); test: microbe, parasite or virus in culture; assay type: cell-based; conditions: MDCK, 48 h, read-out: IC50 Value Flu A/NWS
HeLa cells = test: Cytotoxicity in uninfected HeLa cell cultures, MTT cell viability assay; assay type: cell-based; conditions: MTT at 48 hours
Protocol: (§1) Mammalian cell lines, MDCK CCL34 and HeLa cells CCL2 (both obtained under those accession numbers from ATCC culture) are plated in 96 well microtiter dishes at a density of 3.5×10^4 cells per well and infected with virus at low multiplicity followed by treatment with drug 24 hours after plating of cells; drug concentrations range from 0.025-12.5 mM. MDCK cells are infected with influenza virus (strain A/NWS) and HeLA cells are infected with HRV 14-14VR-284 (obtained from ATCC) (human rhinovirus 14) or CVB3 VR30 (coxsackie virus B3 strain Nancy obtained from ATCC); replicate uninfected cell cultures are treated with drug as toxicity control. At 48 hours after infection the extent of virus growth is determined by ELISA in the case of influenza virus or by the MTT (tetrazolium dye) cell viability assay in the cases of HRV 14 and CVB3. The influenza A (A/NWS)VR-129 (ATCC) virus ELISA assay utilizes a primary monoclonal antibody to the virus hemagglutinin protein and a secondary antibody conjugated to B-galactosidase. Cytotoxicity of drugs in uninfected cell cultures is determined by MTT cell viability assay at 48 hours after drug treatment

[2] = test system: HRV 14 (human rhinovirus 14); test: HRV 14 growth in HeLa cells by MTT cell viability assay; assay type: cell-based; conditions: Rhinovirus B, MTT at 48 hours after infection
Protocol: as §1

[3] = target: influenza virus RNA polymerase (Influenza A virus, UniProt P03431); assay type: biochemical
VSV RNA polymerase = VSV RNA polymerase (Vesicular stomatitis Indiana virus, UniProt P03523); assay type: biochemical, Vesicular stomatitus virus (VSV)
[4] = test system: influenza A virus (strain A/NWS); conditions: mouse, in vivo
[5] = test system: CVB3 (coxsackie virus B3 strain Nancy); test: CVB3 growth in HeLa cells by MTT cell viability assay; assay type: cell-based; conditions: Enterovirus B, MTT at 48 hours after infection
Protocol: as §1

[6] = Homo sapiens, read-out: IC50 Value Tox (beside HRV 14)
[7] = read-out: IC50 Value Tox (beside CVB3)
[8] = Homo sapiens, read-out: IC50 Value Tox (beside CVB3)

Sequence of VSV RNA polymerase (P03523 whole entry, looked up): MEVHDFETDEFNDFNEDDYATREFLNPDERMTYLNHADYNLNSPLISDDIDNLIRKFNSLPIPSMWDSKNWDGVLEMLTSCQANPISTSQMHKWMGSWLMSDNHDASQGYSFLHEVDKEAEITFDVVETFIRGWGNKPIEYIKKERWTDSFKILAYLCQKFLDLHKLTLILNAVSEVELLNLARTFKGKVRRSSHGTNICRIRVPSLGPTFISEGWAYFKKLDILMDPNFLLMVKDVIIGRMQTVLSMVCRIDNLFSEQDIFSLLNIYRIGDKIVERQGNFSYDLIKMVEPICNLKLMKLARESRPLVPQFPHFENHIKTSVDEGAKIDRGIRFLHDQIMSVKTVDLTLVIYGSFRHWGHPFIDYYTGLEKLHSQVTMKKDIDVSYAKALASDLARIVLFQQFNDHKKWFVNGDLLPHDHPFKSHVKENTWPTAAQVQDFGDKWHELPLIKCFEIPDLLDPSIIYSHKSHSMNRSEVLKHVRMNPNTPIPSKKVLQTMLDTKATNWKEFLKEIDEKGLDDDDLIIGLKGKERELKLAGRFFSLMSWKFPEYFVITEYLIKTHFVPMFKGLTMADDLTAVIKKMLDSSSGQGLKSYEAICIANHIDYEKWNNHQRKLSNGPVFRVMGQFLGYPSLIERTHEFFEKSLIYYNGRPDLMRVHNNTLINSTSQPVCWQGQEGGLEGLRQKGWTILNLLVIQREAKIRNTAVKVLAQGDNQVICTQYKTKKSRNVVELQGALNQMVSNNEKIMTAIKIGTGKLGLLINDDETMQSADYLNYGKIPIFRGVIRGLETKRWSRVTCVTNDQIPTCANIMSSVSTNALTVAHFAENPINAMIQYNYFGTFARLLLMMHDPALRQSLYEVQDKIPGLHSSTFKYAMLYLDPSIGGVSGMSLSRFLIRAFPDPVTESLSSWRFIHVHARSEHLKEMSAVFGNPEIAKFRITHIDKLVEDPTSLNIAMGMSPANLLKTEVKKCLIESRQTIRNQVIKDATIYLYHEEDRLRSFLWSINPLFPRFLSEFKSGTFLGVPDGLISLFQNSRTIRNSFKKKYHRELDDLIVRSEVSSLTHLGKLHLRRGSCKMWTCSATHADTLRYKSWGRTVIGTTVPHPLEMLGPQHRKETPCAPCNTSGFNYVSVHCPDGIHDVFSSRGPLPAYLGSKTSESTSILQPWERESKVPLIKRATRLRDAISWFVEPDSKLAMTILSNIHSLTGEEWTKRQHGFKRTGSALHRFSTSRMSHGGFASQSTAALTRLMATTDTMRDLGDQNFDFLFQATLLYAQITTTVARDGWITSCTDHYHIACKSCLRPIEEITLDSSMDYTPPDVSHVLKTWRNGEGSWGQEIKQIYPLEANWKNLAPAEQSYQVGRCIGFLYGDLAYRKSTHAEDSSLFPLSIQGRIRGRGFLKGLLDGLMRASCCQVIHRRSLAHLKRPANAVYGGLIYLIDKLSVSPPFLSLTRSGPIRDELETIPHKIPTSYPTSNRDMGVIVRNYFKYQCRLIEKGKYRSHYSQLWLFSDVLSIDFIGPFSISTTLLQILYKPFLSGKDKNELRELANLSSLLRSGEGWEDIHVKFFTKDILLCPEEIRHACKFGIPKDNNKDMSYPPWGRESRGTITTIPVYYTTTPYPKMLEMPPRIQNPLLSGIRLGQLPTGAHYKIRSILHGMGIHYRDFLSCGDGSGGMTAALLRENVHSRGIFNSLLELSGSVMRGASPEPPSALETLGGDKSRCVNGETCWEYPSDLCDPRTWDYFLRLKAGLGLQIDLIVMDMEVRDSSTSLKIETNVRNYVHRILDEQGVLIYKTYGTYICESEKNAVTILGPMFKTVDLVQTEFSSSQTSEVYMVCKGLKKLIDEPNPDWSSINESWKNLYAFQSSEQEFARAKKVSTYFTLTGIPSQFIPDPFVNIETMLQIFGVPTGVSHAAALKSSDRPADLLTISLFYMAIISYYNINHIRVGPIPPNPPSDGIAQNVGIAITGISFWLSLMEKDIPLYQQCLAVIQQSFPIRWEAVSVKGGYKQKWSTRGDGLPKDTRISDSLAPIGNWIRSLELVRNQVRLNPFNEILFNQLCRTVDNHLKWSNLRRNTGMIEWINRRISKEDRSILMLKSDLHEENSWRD
Sequence of influenza virus RNA polymerase (P03431 whole entry, looked up): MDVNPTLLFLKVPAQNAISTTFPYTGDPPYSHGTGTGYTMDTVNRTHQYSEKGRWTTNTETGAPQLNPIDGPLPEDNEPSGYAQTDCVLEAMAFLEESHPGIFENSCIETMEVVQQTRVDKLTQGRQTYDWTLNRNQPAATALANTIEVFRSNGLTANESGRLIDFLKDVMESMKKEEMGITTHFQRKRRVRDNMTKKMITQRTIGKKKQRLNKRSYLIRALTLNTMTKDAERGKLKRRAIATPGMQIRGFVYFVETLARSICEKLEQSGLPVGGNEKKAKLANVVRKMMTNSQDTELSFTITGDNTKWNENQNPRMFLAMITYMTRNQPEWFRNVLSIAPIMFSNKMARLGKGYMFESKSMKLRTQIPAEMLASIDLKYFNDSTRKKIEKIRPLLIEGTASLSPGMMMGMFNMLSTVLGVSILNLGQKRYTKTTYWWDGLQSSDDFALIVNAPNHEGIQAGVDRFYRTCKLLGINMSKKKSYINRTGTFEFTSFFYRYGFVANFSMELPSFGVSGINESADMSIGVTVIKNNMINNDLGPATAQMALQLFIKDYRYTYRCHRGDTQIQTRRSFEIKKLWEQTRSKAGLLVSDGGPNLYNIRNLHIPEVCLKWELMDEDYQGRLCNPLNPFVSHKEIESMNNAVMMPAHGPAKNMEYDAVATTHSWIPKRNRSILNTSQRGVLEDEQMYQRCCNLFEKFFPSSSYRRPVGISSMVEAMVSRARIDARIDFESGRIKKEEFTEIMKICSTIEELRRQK

Row | Structure (SMILES) | IC50 (MDCK cells) [µM] | IC50 [1] [µM] | IC50 (HeLa cells; [6]) [µM] | IC50 [2] [µM] | further results
1 | Nc1nc2c(ncn2[C@@H]2O[C@H](CO)C[C@H]2O)c(=O)[nH]1 [3'-dG, 3'-deoxyriboguanine] | 2100 | 270 | 3400 | 280 | –
2 | [N-]=[N+]=N[C@H]1C[C@H](n2ccc(=O)[nH]c2=O)O[C@@H]1CO [3'-AzdU] | – | – | – | – | IC50 (HeLa cells; [7]): > 12500 µM
3 | O=c1ccn([C@@H]2O[C@H](COP(=O)(O)OP(=O)(O)OP(=O)(O)O)C[C@H]2O)c(=O)[nH]1 [3'-d UTP, 3'-deoxy UTP] | – | – | – | – | Activity against the influenza virus RNA polymerase [3]: moderately active; Effect on VSV RNA polymerase (VSV RNA polymerase): little or no effect
4 | Nc1ccn([C@@H]2O[C@H](CO)C[C@H]2O)c(=O)n1 [3'-dC, 3'-deoxyribocytosine] | 5000 | 900 | 1800 | 25 | % ILS (increase in life span) [4]: 10% and 20%; % Survival (14 Days) [4]: 0% and 10%; Antiviral activity in murine model of influenza A virus infection [4]: minimal antiviral activity; MST [4]: 11 days and 12 days; IC50 (HeLa cells; [8]): 1800 µM; IC50 [5]: 90 µM
5 | Nc1ccn([C@@H]2O[C@H](COP(=O)(O)OP(=O)(O)OP(=O)(O)O)C[C@H]2O)c(=O)n1 [3'-d CTP, 3'-deoxy-CTP] | – | – | – | – | Activity against the influenza virus RNA polymerase [3]: low to moderately inhibitory activity; % Inhibition (VSV RNA polymerase): 0%; Effect on VSV RNA polymerase (VSV RNA polymerase): does not inhibit
6 | Nc1nc2c(ncn2[C@@H]2O[C@H](COP(=O)(O)OP(=O)(O)OP(=O)(O)O)C[C@H]2O)c(=O)[nH]1 [3'-d GTP, 3'-deoxy-GTP] | – | – | – | – | % Inhibition [3]: 55%; Activity against the influenza virus RNA polymerase [3]: fairly good inhibitor; % Inhibition (VSV RNA polymerase): 13% and 7%; Effect on VSV RNA polymerase (VSV RNA polymerase): only weakly inhibitory
7 | Nc1ncnc2c1ncn2[C@@H]1O[C@H](CO)C[C@H]1O [3'-dA, 3'-deoxyriboadenine] | 1400 | 800 | 130 | 48 | –
8 | O=c1ccn([C@@H]2O[C@H](CO)C[C@H]2O)c(=O)[nH]1 [3'-dU, 3'-deoxyribouracil] | 12500 | 85 | 2400 | 27 | MST [4]: > 14 days and 10 days; Protection of animals in murine model of influenza A virus infection [4]: significant protection; Toxicity in mice [4]: appears to have toxicity; IC50 (HeLa cells; [8]): 2400 µM; IC50 [5]: 90 µM
9 | CO[C@H]1[C@@H](O)[C@H](n2cnc3c(N)ncnc32)O[C@@H]1CO [3'-OMeA] | > 50000 | – | > 50000 | – | –
10 | CO[C@H]1[C@@H](O)[C@H](n2cnc3c(=O)[nH]c(N)nc32)O[C@@H]1CO [3'-OMeG] | > 50000 | – | > 50000 | – | –
11 | [N-]=[N+]=N[C@H]1C[C@H](n2ccc(N)nc2=O)O[C@@H]1CO [3'-AzdC] | – | – | – | – | IC50 (HeLa cells; [7]): > 12500 µM
12 | CO[C@H]1[C@@H](O)[C@H](n2ccc(N)nc2=O)O[C@@H]1CO [3'-OMeC] | > 50000 | – | > 50000 | – | –
13 | CO[C@H]1[C@@H](O)[C@H](n2ccc(=O)[nH]c2=O)O[C@@H]1CO [3'-OMeU] | > 50000 | – | > 50000 | – | –

Source: US6110901A (priority 1992, dated 2000)
